Like-named read-outs stand apart in the source and are kept apart here.
Columns and labels:
[1] = test system: HCV genotype 1b (Con1) replicon in HUH-7 cells; assay: HCV replicon luciferase reporter assay, genotype 1b; assay type: cell-based; conditions: Hepatitis C virus, Huh-7, 72 h, 3 days incubation
Procedure, shortened: (§1)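 Replicon inhibition for both genotypes was measured as Renilla luciferase signal (EnduRen, 7.5 μM final, 2 h) after 3-day, 37° C exposure of replicon-bearing HUH-7 cells in 4% FCS DMEM, 0.5% DMSO. The 1b construct carries S1179I; the 1a H77 construct carries P1496L and S2204I. Twenty-point, 3-fold dilutions were fitted four-parametrically for EC50, and CC50 was taken from multiplexed Cell Titer-Blue.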

[2] = test system: HCV genotype 1a (H77 strain) replicon in HUH-7 cells; assay: HCV replicon luciferase reporter assay, genotype 1a; assay type: cell-based; conditions: Hepatitis C virus, Huh-7, 72 h, 3 days incubation
Procedure, shortened: as §1

[3] = HCV genotype 1b replicon luciferase assay, range class, read-out: LE_1b (EC50, range)
[4] = HCV genotype 1a replicon luciferase assay, range class, read-out: LE_1a (EC50, range)
[5] = HCV genotype 1b replicon luciferase, read-out: LE_1b (EC50, range)
[6] = HCV genotype 1a replicon luciferase, read-out: LE_1a (EC50, range)
[7] = GETYPE1B, HCV genotype 1b replicon luciferase, read-out: LE_1b (EC50, range)
[8] = GETYPE1A, HCV genotype 1a replicon luciferase, read-out: LE_1a (EC50, range)

Structure (SMILES): CCCOc1cc2c(Cl)cccc2c(O[C@@H]2C[C@H]3C(=O)N[C@]4(C(=O)NS(=O)(=O)C5CC5)C[C@H]4/C=C\CC[C@@H](C)C[C@@H](C)[C@H](NC(=O)OC(C)(C)C(F)(F)F)C(=O)N3C2)n1 [Compound 1084, 1,1,1-trifluoro-2-methylpropan-2-yl((2R,6S,7R,9R,13aS,14aR,16aS,Z)-2-((5-chloro-3-propoxyisoquinolin-1-yl)oxy)-14a-((cyclopropylsulfonyl)carbamoyl)-7,9-dimethyl-5,16-dioxo-1,2,3,5,6,7,8,9,10,11,13a,14,14a,15,16,16a-hexadecahydrocyclopropa[e]pyrrolo[1,2-a][1,4]diazacyclopentadecin-6-yl)carbamate]
- EC50 [1, 3]: < 5.46 nM
- EC50 [2, 4]: < 5.46 nM

Structure (SMILES): [2H]C([2H])([2H])Oc1cnc(O[C@@H]2C[C@H]3C(=O)N[C@]4(C(=O)NS(=O)(=O)C5(C)CC5)C[C@H]4/C=C\CC[C@H](C)C[C@@H](C)[C@H](NC(=O)OC(C)(C)C)C(=O)N3C2)c2ccccc12 [Compound 5100, tert-butyl ((2R,6S,7R,9S,13aS,14aR,16aS,Z)-7,9-dimethyl-14a-(((1-methylcyclopropyl)sulfonyl)carbamoyl)-5,16-dioxo-2-((4-(trideuteromethoxy)isoquinolin-1-yl)oxy)-1,2,3,5,6,7,8,9,10,11,13a,14,14a,15,16,16a-hexadecahydrocyclopropa[e]pyrrolo[1,2-a][1,4]diazacyclopentadecin-6-yl)carbamate]
- EC50 [1, 5]: < 5.46 nM
- EC50 [2, 6]: < 5.46 nM

Structure (SMILES): CCOc1ccc2c(O[C@@H]3C[C@H]4C(=O)N[C@]5(C(=O)NS(=O)(=O)C6CC6)C[C@H]5/C=C\CC[C@@H](C)C[C@@H](CC)[C@H](NC(=O)OC(C)(C)C(F)(F)F)C(=O)N4C3)nccc2c1 [Compound 5357, 1,1,1-trifluoro-2-methylpropan-2-yl((2R,6S,7R,9R,13aS,14aR,16aS,Z)-14a-((cyclopropylsulfonyl)carbamoyl)-2-((6-ethoxyisoquinolin-1-yl)oxy)-7-ethyl-9-methyl-5,16-dioxo-1,2,3,5,6,7,8,9,10,11,13a,14,14a,15,16,16a-hexadecahydrocyclopropa[e]pyrrolo[1,2-a][1,4]diazacyclopentadecin-6-yl)carbamate]
- EC50 [1, 5]: 0.51 to 1 nM
- EC50 [2, 6]: 1.01 to 5 nM

Structure (SMILES): COc1ccc2nc(O[C@@H]3C[C@H]4C(=O)N[C@]5(C(=O)NS(=O)(=O)C6(C)CC6)C[C@H]5/C=C\CC[C@@H](C)C[C@@H](C)[C@H](NC(=O)OC(C)(C)C(F)(F)F)C(=O)N4C3)cnc2c1 [Compound 4163]
- EC50 ([1]; GETYPE1B, HCV genotype 1b replicon luciferase, read-out: LE_1b (EC50)): 1.89 nM
- EC50 [1, 7]: < 5.46 nM
- EC50 ([2]; GETYPE1A, HCV genotype 1a replicon luciferase, read-out: LE_1a (EC50)): 9.8 nM
- EC50 [2, 8]: 4.82 to 103 nM

Structure (SMILES): COc1ccc2c(O[C@@H]3C[C@H]4C(=O)N[C@]5(C(=O)NS(=O)(=O)C6(C)CC6)C[C@H]5/C=C\CC[C@H](C)C[C@@H](C)[C@H](NC(=O)OC(C)(C)C(F)(F)F)C(=O)N4C3)nc(-c3ccc(OC(C)C)cc3)nc2c1 [Compound 3011, 1,1,1-trifluoro-2-methylpropan-2-yl((2R,6S,7R,9S,13aS,14aR,16aS,Z)-2-((2-(4-isopropoxyphenyl)-7-methoxyquinazolin-4-yl)oxy)-7,9-dimethyl-14a-(((1-methylcyclopropyl)sulfonyl)carbamoyl)-5,16-dioxo-1,2,3,5,6,7,8,9,10,11,13a,14,14a,15,16,16a-hexadecahydrocyclopropa[e]pyrrolo[1,2-a][1,4]diazacyclopentadecin-6-yl)carbamate]
- EC50 [1, 3]: < 5.46 nM
- EC50 [2, 4]: 4.82 to 103 nM

Structure (SMILES): COc1ccc2c(O[C@@H]3C[C@H]4C(=O)N[C@]5(C(=O)NS(=O)(=O)C6(F)CC6)C[C@H]5/C=C\CC[C@@H](C)C[C@@H](C)[C@H](NC(=O)OC(C)(C)C(F)(F)F)C(=O)N4C3)ncc(Cl)c2c1 [Compound 4028]
- EC50 [1, 7]: < 5.46 nM
- EC50 [2, 8]: < 5.46 nM

Structure (SMILES): COc1ccc2c(O[C@@H]3C[C@H]4C(=O)N[C@]5(C(=O)NS(=O)(=O)C6(C)CC6)C[C@H]5/C=C\CC[C@H](C)C[C@@H](C)[C@H](NC(=O)OCC5(C)CC5)C(=O)N4C3)nc(-c3ccc(OC(C)C)c(F)c3)cc2c1 [Compound 3067, (1-methylcyclopropyl)methyl ((2R,6S,7R,9S,13aS,14aR,16aS,Z)-2-((3-(3-fluoro-4-isopropoxyphenyl)-6-methoxyisoquinolin-1-yl)oxy)-7,9-dimethyl-14a-(((1-methylcyclopropyl)sulfonyl)carbamoyl)-5,16-dioxo-1,2,3,5,6,7,8,9,10,11,13a,14,14a,15,16,16a-hexadecahydrocyclopropa[e]pyrrolo[1,2-a][1,4]diazacyclopentadecin-6-yl)carbamate]
- EC50 [1, 3]: < 5.46 nM
- EC50 [2, 4]: 4.82 to 103 nM

Structure (SMILES): CC[C@@H]1C[C@H](C)CC/C=C\[C@@H]2C[C@@]2(C(=O)NS(=O)(=O)C2(C)CC2)NC(=O)[C@@H]2C[C@@H](Oc3ncc(OC)c4ccc(F)cc34)CN2C(=O)[C@H]1NC(=O)C(C)(C)C(F)(F)F [Compound 4324, (2R,6S,7R,9R,13aS,14aR,16aS,Z)-7-ethyl-2-((7-fluoro-4-methoxyisoquinolin-1-yl)oxy)-9-methyl-N-((1-methylcyclopropyl)sulfonyl)-5,16-dioxo-6-(3,3,3-trifluoro-2,2-dimethylpropanamido)-1,2,3,5,6,7,8,9,10,11,13a,14,14a,15,16,16a-hexadecahydrocyclopropa[e]pyrrolo[1,2-a][1,4]diazacyclopentadecine-14a-carboxamide]
- EC50 [1, 5]: 0.51 to 1 nM
- EC50 [2, 6]: 1.01 to 5 nM

Structure (SMILES): CC[C@@H]1C[C@H](C)CC/C=C\[C@@H]2C[C@@]2(C(=O)NS(=O)(=O)C2CC2)NC(=O)[C@@H]2C[C@@H](Oc3nccc4c(OC)cccc34)CN2C(=O)[C@H]1NC(=O)NC(C)(C)C [Compound 3030, (2R,6S,7R,9R,13aS,14aR,16aS,Z)-6-(3-(tert-butyl)ureido)-N-(cyclopropylsulfonyl)-7-ethyl-2-((5-methoxyisoquinolin-1-yl)oxy)-9-methyl-5,16-dioxo-1,2,3,5,6,7,8,9,10,11,13a,14,14a,15,16,16a-hexadecahydrocyclopropa[e]pyrrolo[1,2-a][1,4]diazacyclopentadecine-14a-carboxamide]
- EC50 [1, 3]: < 5.46 nM
- EC50 [2, 4]: < 5.46 nM

Structure (SMILES): COc1cc(F)cc2c(O[C@@H]3C[C@H]4C(=O)N[C@]5(C(=O)NS(=O)(=O)C6(C)CC6)C[C@H]5/C=C\CC[C@@H](C)C[C@@H](C)[C@H](NC(=O)O[C@H](C)C(F)(F)F)C(=O)N4C3)nccc12 [Compound 3158, (R)-1,1,1-trifluoropropan-2-yl ((2R,6S,7R,9R,13aS,14aR,16aS,Z)-2-((7-fluoro-5-methoxyisoquinolin-1-yl)oxy)-7,9-dimethyl-14a-(((1-methylcyclopropyl)sulfonyl)carbamoyl)-5,16-dioxo-1,2,3,5,6,7,8,9,10,11,13a,14,14a,15,16,16a-hexadecahydrocyclopropa[e]pyrrolo[1,2-a][1,4]diazacyclopentadecin-6-yl)carbamate]
- EC50 [1, 3]: < 5.46 nM
- EC50 [2, 4]: < 5.46 nM

Structure (SMILES): CC[C@@H]1C[C@H](C)CC/C=C\[C@@H]2C[C@@]2(C(=O)NS(=O)(=O)C2(C)CC2)NC(=O)[C@@H]2C[C@@H](Oc3nccc4cc(OC)c(F)cc34)CN2C(=O)[C@H]1NC(=O)N1CCOCC1 [Compound 4333, N-((2R,6S,7R,9R,13aS,14aR,16aS,Z)-7-ethyl-2-((7-fluoro-6-methoxyisoquinolin-1-yl)oxy)-9-methyl-14a-(((1-methylcyclopropyl)sulfonyl)carbamoyl)-5,16-dioxo-1,2,3,5,6,7,8,9,10,11,13a,14,14a,15,16,16a-hexadecahydrocyclopropa[e]pyrrolo[1,2-a][1,4]diazacyclopentadecin-6-yl)morpholine-4-carboxamide]
- EC50 [1, 5]: 5.01 to 35 nM
- EC50 [2, 6]: 5.01 to 35 nM

Structure (SMILES): COc1ccc2c(O[C@@H]3C[C@H]4C(=O)N[C@]5(C(=O)NS(=O)(=O)C6(C)CC6)C[C@H]5/C=C\CC[C@H](C)C[C@@H](C)[C@H](NC(=O)OC(C)(C)C(C)(F)F)C(=O)N4C3)nc(-c3ccc(OC(C)C)cn3)cc2c1 [Compound 5476, 3,3-difluoro-2-methylbutan-2-yl((2R,6S,7R,9S,13aS,14aR,16aS,Z)-2-((3-(5-isopropoxypyridin-2-yl)-6-methoxyisoquinolin-1-yl)oxy)-7,9-dimethyl-14a-(((1-methylcyclopropyl)sulfonyl)carbamoyl)-5,16-dioxo-1,2,3,5,6,7,8,9,10,11,13a,14,14a,15,16,16a-hexadecahydrocyclopropa[e]pyrrolo[1,2-a][1,4]diazacyclopentadecin-6-yl)carbamate]
- EC50 [1, 5]: 1.01 to 5 nM
- EC50 [2, 6]: 5.01 to 35 nM

Structure (SMILES): COCCOc1cnc(O[C@@H]2C[C@H]3C(=O)N[C@]4(C(=O)NS(=O)(=O)C5(C)CC5)C[C@H]4/C=C\CC[C@H](C)C[C@@H](C)[C@H](NC(=O)OC(C)(C)C(F)(F)F)C(=O)N3C2)c2ccccc12 [Compound 1037, 1,1,1-trifluoro-2-methylpropan-2-yl((2R,6S,7R,9S,13aS,14aR,16aS,Z)-2-((4-(2-methoxyethoxyl)isoquinolin-1-yl)oxy)-7,9-dimethyl-14a-(((1-methylcyclopropyl)sulfonyl)carbamoyl)-5,16-dioxo-1,2,3,5,6,7,8,9,10,11,13a,14,14a,15,16,16a-hexadecahydrocyclopropa[e]pyrrolo[1,2-a][1,4]diazacyclopentadecin-6-yl)carbamate]
- EC50 [1, 3]: 4.82 to 103 nM
- EC50 [2, 4]: 4.82 to 103 nM

From patent publication US9499550B2 (BRISTOL-MYERS SQUIBB COMPANY, priority 2012, dated 2016)
